Test results: US20260287586A1, “METHODS OF TREATING TKI-RESISTANT AND SDH-DEFICIENT GIST” (priority 2023, published 2026)
Where “and” joins values, the source holds several entries; their conditions need not be identical. Equal entries are not always repeated. Entries after “also recorded” stand apart in the source; their conditions may differ. Where two headings read alike, the source gives them in different places.

Columns and labels:
[1] = for AUClast: fed, Day 27 steady state, mean (SD)
Experimental: Noncompartmental pharmacokinetic (PK) analysis was conducted using Phoenix WinNonlin software (Version 6.4).

[2] = Phase 1 trial HQP1351-SJ-0003 of olverembatinib: safety (adverse events, DLT, MTD/RP2D); type: in vivo, human; settings: for Abdominal pain, treatment-emergent AE / Anemia, treatment-emergent AE / Constipation, treatment-emergent AE / Fatigue, treatment-emergent AE / Hyperuricemia, treatment-emergent AE / Increased alanine aminotransferase, treatment-emergent AE / Increased aspartate aminotransferase, treatment-emergent AE / Increased leukocyte count, treatment-emergent AE / Increased neutrophil count, treatment-emergent AE / Pyrexia, treatment-emergent AE: all patients N = 66
Source text: The dose escalation aspect of the study enrolled patients with advanced and/or metastatic GIST or other solid tumors that were refractory or had relapsed after treatment with at least one TKI.
Eligible patients were adults (≥18 years) who had advanced and/or metastatic GISTs or other solid tumors confirmed by histology and/or cytology. The definition of SDH-deficient GIST was based on pathological phenotype with negative immunohistochemical staining for SDHB. Also required for study enrollment were Eastern Cooperative Oncology Group performance status (ECOG PS)≤2; and adequate renal, hepatic, cardiac, and bone marrow function. A full list of inclusion and exclusion criteria is in the protocol. Enrollment trends, ongoing review of study data, and evolving knowledge regarding the GIST treatment paradigm informed the study sponsor's medical director's and investigators' decision to analyze the SDH-deficient GIST patient subgroup separately.
Based on encouraging initial activity and favorable tolerability (Qiu, H., et al., J. Clin. Oncol. 40, 11513 (2022)), additional patients with SDH-deficient GIST were enrolled to further explore efficacy, and patients with TKI-naïve SDH-deficient GIST and adolescent patients (aged 12-18 years old) with SDH-deficient GIST were permitted. After data from the dose-escalation part of the study were reviewed during a meeting of the principal investigators and a postmarket dose was recommended to treat CML, all adult patients received 40 mg QOD (determined RP2D dose), and adolescent patients received 20 to 40 mg QOD based on body weight. If body weight was at least 40 kg, patients received 40 mg QOD; if within 30-40 kg, 30 mg QOD; and, if within 20-30 kg, 20 mg QOD. Patients with SDH-deficient malignant paraganglioma who had failed at least one treatment and were without appropriate treatment (as judged by investigators) were also enrolled. Treatment could continue until precluded by toxicity, noncompliance, withdrawal of consent, physician decision, progressive disease, death, or closure of the study. All protocol modifications, including those increasing the number of patients and cohorts in the dose-expansion aspect, are established in the trial protocol version dated May 27, 2022.
Physical examination and adverse events (AEs) were evaluated at each follow-up visit (day −28~day −1 after signed informed consent form); on days 1, 8, 15, and 22 during cycles 1 and 2; and on days 1 and 15 in cycle 3 and all subsequent cycles, up to 30 days after the final dose. All AEs were graded according to the US National Cancer Institute (NCI) Common Terminology Criteria for Adverse Events (CTCAE; version 4.03). Clinical laboratory investigations for routine blood examinations and serum chemistry parameters were performed during every cycle (on day 1); cycles 1 and 2 (on days 8, 15, and 22); and 30 days after the last dose of treatment. Urinalysis, coagulation, cardiac troponin I/T, lipase, amylase, and electrocardiograms were done at baseline; during cycles 1 and 2 (on days 1 and 15); cycle 3, 5, 7, and 9; every 3 cycles after cycle 9 (on day 1); and 14 days after the last dose of treatment. All patients underwent tumor imaging for response assessment via computed tomography or magnetic resonance imaging at screening and every two cycles (8 weeks) until progression or discontinuation. Target and nontarget lesions were assessed per Response Evaluation Criteria in Solid Tumors version 1.1 (RECIST v1.1).
The data cutoff for this analysis was Dec. 27, 2023. The safety population included all patients who received at least one dose of olverembatinib. The SDH-deficient GIST population (prespecified subgroup) included patients in the safety population. MTD was defined as the highest dose level with no more than one dose-limiting toxicity in six patients.

[3] = tested on: BCL-XL and MCL-1 protein expression; test: Mechanism study: BCL-XL and MCL-1 protein expression; type: cell-based; settings: possibly via inhibition of KIT signal pathway and STAT3
Source text: Therefore, selective inhibition of BCL-2, aided by TKI-mediated MCL-1 and BCL-XL inhibition, markedly augmented cleavage of caspase-3 and poly(ADP-ribose) polymerase 1 (PARP-1), thus triggering apoptosis and subsequently enhancing antitumor effects.

[4] = reported in ≥2 patients, N = 66

## Cc1ccc(C(=O)Nc2ccc(CN3CCN(C)CC3)c(C(F)(F)F)c2)cc1C#Cc1cnc2[nH]ncc2c1 [Olverembatinib, olverembatinib]
[1]; 20 mg QOD oral, 2 subjects
  AUClast: 228 ± 6.4 h*ng/m
[1]; 30 mg QOD oral, 4 subjects
  AUClast: 307 ± 121 h*ng/m
[1]; 40 mg QOD oral, 15 subjects
  AUClast: 473 ± 177 h*ng/m
[1]; 50 mg QOD oral, 3 subjects
  AUClast: 518 ± 174 h*ng/m
[1]; 20 to 50 mg QOD
  accumulation after multiple-dose administration: no significant accumulation
[1]; dose range of 20 to 50 mg
  dose proportionality of Cmax and AUClast: approximately dose-proportional increase
[2]; 20-50 mg QOD
  dose-limiting toxicities: No dose-limiting toxicities were reported; also recorded: No dose-limiting toxicity was observed
  maximum tolerated dose (MTD): not reached
[2]; N = 66
  dose reductions due to TRAEs: dose reductions in two patients
  patients who experienced grade ≥3 TRAEs: 13.6%
  patients who experienced treatment-related adverse events (TRAEs): 93.9%
  treatment-related serious adverse events: 7.6%
[2]; N = 66, value is N
  Anemia, treatment-related serious AE: 2 N (%)
  Coronary sclerosis, treatment-related serious AE: 1 N (%)
  Intestinal obstruction, treatment-related serious AE: 1 N (%)
  Leukemoid reaction, treatment-related serious AE: 1 N (%)
[2]; all 66 subjects, oral 20-50 mg QOD
  subjects who experienced treatment-emergent adverse events (TEAEs): 100.0%
[2]; any grade, N = 66, value is N
  Abdominal pain, treatment-related AE: 3 N (%)
  Anemia, treatment-related AE: 9 N (%)
  Constipation, treatment-related AE: 23 N (%)
  Coronary sclerosis, treatment-related AE: 1 N (%)
  Decreased neutrophil count, treatment-related AE: 3 N (%)
  Fatigue, treatment-related AE: 18 N (%)
  Hypertension, treatment-related AE: 3 N (%)
  Hyperuricemia, treatment-related AE: 12 N (%)
  Hypoalbuminemia, treatment-related AE: 10 N (%)
  Increased CRP, treatment-related AE: 11 N (%)
  Increased WBC count, treatment-related AE: 27 N (%)
  Increased alanine aminotransferase, treatment-related AE: 20 N (%)
  Increased aspartate aminotransferase, treatment-related AE: 23 N (%)
  Increased creatinine, treatment-related AE: 9 N (%)
  Increased neutrophil count, treatment-related AE: 22 N (%)
  Increased platelet count, treatment-related AE: 7 N (%)
  Intestinal obstruction, treatment-related AE: 2 N (%)
  Leukemoid reaction, treatment-related AE: 1 N (%)
  Melanocytic nevi, treatment-related AE: 15 N (%)
[2]; any grade
  Abdominal pain, treatment-emergent AE: 15 N (%) and 15 (22.7) N (%)
  Anemia, treatment-emergent AE: 31 N (%) and 31 (47.0) N (%)
  Constipation, treatment-emergent AE: 27 N (%) and 27 (40.9) N (%)
  Fatigue, treatment-emergent AE: 20 (30.3) N (%)
  Hyperuricemia, treatment-emergent AE: 31 (47.0) N (%)
  Increased alanine aminotransferase, treatment-emergent AE: 25 N (%) and 25 (37.9) N (%)
  Increased aspartate aminotransferase, treatment-emergent AE: 31 N (%) and 31 (47.0) N (%)
  Increased leukocyte count, treatment-emergent AE: 32 N (%) and 32 (48.5) N (%)
  Increased neutrophil count, treatment-emergent AE: 25 N (%) and 25 (37.9) N (%)
  Pyrexia, treatment-emergent AE: 28 N (%) and 28 (42.4) N (%)
[2]; grades 3-5, N = 66, value is N
  Abdominal pain, treatment-related AE: 1 N (%)
  Anemia, treatment-related AE: 1 N (%)
  Constipation, treatment-related AE: 0 N (%)
  Coronary sclerosis, treatment-related AE: 1 N (%)
  Decreased neutrophil count, treatment-related AE: 2 N (%)
  Fatigue, treatment-related AE: 1 N (%)
  Hypertension, treatment-related AE: 1 N (%)
  Hyperuricemia, treatment-related AE: 0 N (%)
  Hypoalbuminemia, treatment-related AE: 0 N (%)
  Increased CRP, treatment-related AE: 0 N (%)
  Increased WBC count, treatment-related AE: 0 N (%)
  Increased alanine aminotransferase, treatment-related AE: 1 N (%)
  Increased aspartate aminotransferase, treatment-related AE: 1 N (%)
  Increased creatinine, treatment-related AE: 0 N (%)
  Increased neutrophil count, treatment-related AE: 0 N (%)
  Increased platelet count, treatment-related AE: 0 N (%)
  Intestinal obstruction, treatment-related AE: 1 N (%)
  Leukemoid reaction, treatment-related AE: 1 N (%)
  Melanocytic nevi, treatment-related AE: 0 N (%)
[2]; grades 3-5
  Abdominal pain, treatment-emergent AE: 1 (1.5) N (%)
  Anemia, treatment-emergent AE: 4 (6.1) N (%)
  Constipation, treatment-emergent AE: 0 N (%)
  Fatigue, treatment-emergent AE: 1 (1.5) N (%)
  Hyperuricemia, treatment-emergent AE: 1 (1.5) N (%)
  Increased alanine aminotransferase, treatment-emergent AE: 2 (3.0) N (%)
  Increased aspartate aminotransferase, treatment-emergent AE: 2 (3.0) N (%)
  Increased leukocyte count, treatment-emergent AE: 0 N (%)
  Increased neutrophil count, treatment-emergent AE: 0 N (%)
  Pyrexia, treatment-emergent AE: 0 N (%)
[2]; of 66 patients
  patients who required treatment interruption: 31.8%
[2]; on alternate days (QOD)
  RP2D: 40 mg
[2]; patients in the phase 1 trial
  tolerability: well tolerated
[2]; [4]
  Anemia, serious treatment-emergent AE: 2 (3.0) N (%)
  Intestinal obstruction, serious treatment-emergent AE: 5 (7.6) N (%)
[3]
  effect on BCL-XL and MCL-1 protein expression: downregulate BCL-XL and MCL-1 protein expression
